# Assay results as given in patent publication US20240316043A1, “BROMODOMAIN INHIBITORS FOR CANCER THERAPY” (University of Tennessee Research Foundation, priority 2023, published 2024).
# Entries after “also recorded” stand apart in the source; their conditions may differ.
# Key:
# [1] = tested on: intracranial GBM xenografts (MT330 cells); assay: Orthotopic GBM model, MT330 cells injected into brains of NSG mice; format: in vivo; details: for bioluminescent signal in the brain: combination with TMZ (10 mg/Kg), IV-255 or IV-275 (20 mg/Kg) IP 3 times per week, 3-4 weeks after treatment, versus either agent alone, FIG. 10
# Method: MT330 cells (10^6) were injected into the brains of NSG female mice. After tumors were identified by BLI (˜10 days post-injection), mice were IP injected with TMZ (60 mg/Kg body weight) or IV-129 (10 mg/Kg) alone or in combination 3 times per week (5 mice per group) for 2 weeks. […] FIG. 5C Kaplan-Meier analysis of the survival data (5 mice/group) of the brain tumor-bearing mice was performed.
# MT330 cells […] were injected into the brains of NSG female mice. After tumors were identified by BLI (˜10 days post-injection), mice were IP injected with TMZ (10 mg/Kg body weight), IV-255 or IV-275 (20 mg/Kg) alone or in combination 3 times per week (5 mice/group).
# Luciferase-expressing MT330 cells were injected into the brains of immunocompromised NSG mice. Once tumors were identified by bioluminescence imaging (BLI) at ˜10 days after tumor cell injection, mice were subjected to intraperitoneal injection of TMZ or YH-IV-129 alone, or in combination. At 20 days after initiation of treatment, live animal imaging was performed on an IVIS Lumina instrument. […] The mean survival of control mice was 27 days after cell injection (FIG. 5C).
# Luciferase-expressing MT330 cells were injected into the brains of immunocompromised NSG mice. Once tumors were identified by bioluminescence imaging (BLI) at ˜10 days after tumor cell injection, mice were subjected to intraperitoneal injection of TMZ or YH-IV-255 or YH-IV-275 alone, or in combination. […] This is compelling preliminary evidence that these two new compounds have potent anticancer activity in intracranial GBM xenografts when combined with standard-of-care TMZ chemotherapy and that these drugs cross the blood-brain barrier.
# [2] = tested on: T98G GBM cells; assay: IncuCyte live cell imaging proliferation assay; format: cell-based; details: TMZ (500 μM) plus bromodomain inhibitors (20 μM), FIG. 2
# Method: T98G GBM cells were treated with TMZ (500 μM), the bromodomain inhibitors (20 μM), and cell proliferation was determined by Incucyte live cell assays using cellular confluence method. The data was normalized to the calculated cell confluence at day 0. Control cells were treated with vehicle (DMSO).
# To further characterize the biological activity of selected bromodomain inhibitors, YH-IV-129, YH-IV-181 and YH-IV-191, IncuCyte live cell imaging proliferation assays were performed with the highly TMZ-resistant T98G GBM cell line.
# [3] = molecular target: T1, BRM bromodomain (Homo sapiens, UniProt P51531); assay: Cellular thermal shift assay (CETSA), BRM bromodomain construct in MT330 cells; format: binding; design: binding to the BRM BRD: dose or concentration left out as unconfirmed; details: for thermostability of the BRM BRD: heating 44.5° C. to 55.6° C. for 5 min, immunoblot; for binding to the BRM BRD: CETSA, FIG. 6B
# T1 construct: expressed in transfected cells; host or cells: MT330 glioblastoma cells
# T1 sequence (P51531 1378-1506 limits assumed): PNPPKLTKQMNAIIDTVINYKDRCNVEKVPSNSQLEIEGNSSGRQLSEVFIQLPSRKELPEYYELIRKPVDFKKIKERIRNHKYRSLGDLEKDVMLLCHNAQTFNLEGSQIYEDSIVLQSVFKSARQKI
# Method: (§1) For the CETSA, MT330 cells expressing the BRM (FIG. 6B), or BRG1 (FIG. 6C) the BRD construct were treated with bromodomain inhibitors […] and immunoblotted as indicated.
# (§2) After heating over a temperature range from 44.5° C. to 55.6° C. for 5 min, MT330 cells were lysed and then immunoblotted for BRG1 or BRM.
# [4] = molecular target: T2, BRG1 bromodomain (Homo sapiens, UniProt P51532); assay: Cellular thermal shift assay (CETSA), BRG1 bromodomain construct in MT330 cells; format: binding; design: binding to the BRG1 BRD: dose or concentration left out as unconfirmed; details: for thermostability of the BRG1 BRD: 30 μM, heating 44.5° C. to 55.6° C. for 5 min, immunoblot; for binding to the BRG1 BRD: CETSA, FIG. 6C; for selectivity BRG1 versus BRM bromodomain: conclusion from CETSA and knockout cells
# T2 construct: expressed in transfected cells; host or cells: MT330 glioblastoma cells
# T2 sequence (P51532 1453-1564 limits assumed): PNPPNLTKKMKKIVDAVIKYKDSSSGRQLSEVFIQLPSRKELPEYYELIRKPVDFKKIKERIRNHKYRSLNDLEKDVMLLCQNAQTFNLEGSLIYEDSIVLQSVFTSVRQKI
# Method: After heating over a temperature range from 44.5° C. to 55.6° C. for 5 min, the cells were lysed, placed on ice at 4° C. and then immunoblotted for BRG1 or actin.
# as §1, §2
# [5] = tested on: MT330 GBM cells; assay: Cell death ELISA in MT330 GBM cells; format: cell-based; details: for enhancement of TMZ-induced cell death: 10 mM inhibitor in combination with 200 mM of TMZ, 72 hrs, FIG. 1; for enhancement of bleomycin-induced cell death: bleomycin (0.01 μM) and bromodomain inhibitors (10 μM); for enhancement of bleomycin-induced cell death / cell death, inhibitor alone: 72 hr, FIG. 9; for cell death, inhibitor alone: bromodomain inhibitors (10 μM) alone
# Method: Control cells were treated with vehicle (DMSO). Cell death was determined at 72 hr after treatment by a cell death ELISA that quantifies histone-complexed DNA fragments. […]
# Parental and BRG1 knockout MT330 cells were treated with bleomycin (0.01 μM) and bromodomain inhibitors […]. After 72 hr, cell death was determined by cell death ELISA.
# The biological activity of bromodomain inhibitors was assessed for the ability to enhance TMZ-induced cell death. In brief, MT330 cells were treated with […] of bromodomain inhibitors alone, or in combination with […] of TMZ for 72 hrs, and GBM cell death was determined by a commercial ELISA.
# [6] = tested on: BRM knockout MT330 cells; assay: Cell death ELISA in BRM knockout MT330 cells; format: cell-based; details: TMZ (500 μM) and bromodomain inhibitors (10 μM), 72 hr, FIG. 7
# Method: (§3) BRG1 and BRM knockout MT330 cells were treated with TMZ (500 μM) and bromodomain inhibitors (10 μM). After 72 hr, cell death was determined by a cell death ELISA.
# (§4) To further characterize the specificity of YH-IV-255 for the BRG1 bromodomain, GBM cell lines were generated with either BRG1 or BRM knocked out by CRISPR/Cas9 gene editing.^14 These cells were isolated by puromycin selection and the knockout of the either subunit was validated by immunoblotting.
# [7] = tested on: MT330 GBM cells; assay: Cell death ELISA in MT330 GBM cells; format: cell-based; details: for TMZ sensitivity (TMZ-induced cell death): TMZ (500 μM) and bromodomain inhibitors (10 μM), 24 hr, FIG. 6A
# [8] = tested on: BRG1 knockout MT330 cells; assay: Cell death ELISA in BRG1 knockout MT330 cells; format: cell-based; details: 72 hr
# Method: as §3
# Parental and BRG1 knockout MT330 cells were treated with bleomycin (0.01 μM) and bromodomain inhibitors (10 μM). After 72 hr, cell death was determined by cell death ELISA.
# as §4
# [9] = tested on: LN229 GBM cells; assay: γH2Ax immunostaining after TMZ; format: cell-based; design: dose or concentration left out as unconfirmed; details: 24 hrs, FIG. 11
# Method: After treatment for 24 hrs, cells were fixed and immunostained for gH2Ax. Analysis of immunostaining was performed on a laser confocal microscope.
# As TMZ is DNA damaging agent, we tested the ability of various bromodomain inhibitors to enhance TMZ-induced DNA damage as evidence by immunostaining of GBM cells with γH2Ax and examination of the staining on a confocal microscope. γH2AX is the phosphorylated version of the histone variant H2Ax and is a highly specific and sensitive marker for monitoring DNA damage initiation and resolution. […] Similar results were obtained with MT330 GBM cells.
# [10] = tested on: MT330 cells; assay: γH2Ax immunostaining after bleomycin; format: cell-based; details: bleomycin alone (0.5 and 2 μM), 1 hr, FIG. 8
# Method: After 1 hr of bleomycin treatment cell death, cells were fixed and immunostained for γH2Ax. Analysis of immunostaining was performed on at least 1,000 cells on the Lionheart FX imaging system.
# Bleomycin is a chemotherapeutic drug that is used to treat various cancers. […] Thus, the ability of bleomycin to induce DNA damage as evidence by immunostaining of MT330 cells and LN229 with γH2Ax was tested. Quantification of cell staining was determined on the Lionheart FX imaging station.
# [11] = vehicle control band disappearing at 49.8° C., FIG. 3
compound,measurement,setting,value
"Cn1nnc2c(C(N)=O)ncn2c1=O [TMZ, temozolomide, reference compound]","mean survival, either agent alone","[1]; TMZ (60 mg/Kg) or IV-129 (10 mg/Kg) alone IP, control mice 27 days, FIG. 5C",35 days
"COc1ccc(N2C[C@H]3C[C@@H]2CN3C(=O)Nc2ccccc2)cc1 [YH-IV-181, (1R,4R)-5-(4-methoxyphenyl)-N-phenyl-2,5-diazabicyclo[2.2.1]heptane-2-carboxamide]",sensitization to the antiproliferative action of TMZ,[2],potently sensitized T98G GBM cells to the antiproliferative action of TMZ
same,thermostability of the BRM BRD,[3]; FIG. 3,significantly increased the thermostability
same,temperature at which the BRM BRD protein band is undetectable,[3]; [11],54.20 °C
same,thermostability of the BRG1 BRD,[4]; FIG. 3,significantly increased the thermostability
same,temperature at which the BRG1 BRD protein band is undetectable,[4]; [11],54.20 °C
"COc1ccc(N2C[C@H]3C[C@@H]2CN3C(=O)NC(C)(C)C)cc1 [YH-IV-185, (1R,4R)-N-(tert-butyl)-5-(4-methoxyphenyl)-2,5-diazabicyclo[2.2.1]heptane-2-carboxamide]",thermostability of the BRM BRD,[3]; FIG. 3,only moderately increased the thermostability
same,thermostability of the BRG1 BRD,[4]; FIG. 3,only moderately increased the thermostability
"COc1ccc(N2CCN(C(=O)OC(C)(C)C)CC2)cc1 [YH-IV-189, tert-butyl 4-(4-methoxyphenyl)piperazine-1-carboxylate]",thermostability of the BRM BRD,[3]; FIG. 3,only moderately increased the thermostability
same,thermostability of the BRG1 BRD,[4]; FIG. 3,only moderately increased the thermostability
"COc1ccc(N2C[C@H]3C[C@@H]2CN3C(=O)Nc2ccc(F)cc2)cc1 [YH-IV-211, (1R,4R)-N-(4-fluorophenyl)-5-(4-methoxyphenyl)-2,5-diazabicyclo[2.2.1]heptane-2-carboxamide]",enhancement of TMZ-induced cell death,[5],better efficacy than PFI-3
"COc1ccc(N2C[C@H]3C[C@@H]2CN3C(=O)Oc2ccccc2)cc1 [YH-IV-235, (1R,4R)-phenyl 5-(4-methoxyphenyl)-2,5-diazabicyclo[2.2.1]heptane-2-carboxylate]",enhancement of TMZ-induced cell death,[5],better efficacy than PFI-3
"COc1ccc(N2C[C@H]3C[C@@H]2CN3C(=O)Nc2ccc(F)c(F)c2)cc1 [YH-IV-255, (1R,4R)-N-(3,4-difluorophenyl)-5-(4-methoxyphenyl)-2,5-diazabicyclo[2.2.1]heptane-2-carboxamide]",enhancement of TMZ-induced cell death,[5],better efficacy than PFI-3; also recorded: somewhat more bioactive than YH-IV-129; also recorded: markedly enhanced TMZ sensitivity of GBM cells in vitro as compared to PFI-3
same,enhancement of bleomycin-induced cell death,[5],sensitized GBM cells to bleomycin-induced cell death
same,"cell death, inhibitor alone",[5],"none of the bromodomain inhibitors (YH-IV-129, YH-IV-255 and YH-IV-275) alone had any death inducing activity"
same,enhancement of TMZ-induced cell death,[6],very similar activity in enhancing the cell death inducing activity in BRM knockout GBM cells; also recorded: sensitized BRM knockout GBM cells
same,binding to the BRM BRD,[3],does not bind
same,TMZ sensitivity (TMZ-induced cell death),[7],similarly increase the TMZ sensitivity of GBM cells
same,TMZ sensitivity (TMZ-induced cell death),[7]; listed as IV-255,potent sensitizer to TMZ-induced cell death
same,bioluminescent signal in the brain,[1],decreased the bioluminescent signal in the brain
same,enhancement of TMZ-induced cell death,"[8]; TMZ (500 μM) and bromodomain inhibitors (10 μM), FIG. 7",no such activity in BRG1 knockout GBM cells; also recorded: not BRG1 knockout cells
same,enhancement of bleomycin-induced cell death,"[8]; bleomycin (0.01 μM) and bromodomain inhibitors (10 μM), FIG. 9",ablated in BRG1 knockout MT330 cells
same,"γH2Ax staining, inhibitor with TMZ",[9],marked increase in γH2Ax staining
same,binding to the BRG1 BRD,[4],bind equivalently to the BRG1 BRD
same,selectivity BRG1 versus BRM bromodomain,[4],selective BRG1 bromodomain inhibitor; also recorded: selective inhibitor the BRG-1 bromodomain
same,selectivity BRG1 versus BRM bromodomain,[4]; listed as IV-255,binds selectively to the BRG1 BRD
"COc1ccc(N2C[C@H]3C[C@@H]2CN3C(=O)Oc2ccc(F)c(F)c2)cc1 [YH-IV-275, (1R,4R)-3,4-difluorophenyl 5-(4-methoxyphenyl)-2,5-diazabicyclo [2.2.1]heptane-2-carboxylate]",enhancement of TMZ-induced cell death,[5],better efficacy than PFI-3; also recorded: somewhat more bioactive than YH-IV-129; also recorded: markedly enhanced TMZ sensitivity of GBM cells in vitro as compared to PFI-3
same,enhancement of bleomycin-induced cell death,[5],sensitized GBM cells to bleomycin-induced cell death
same,"cell death, inhibitor alone",[5],"none of the bromodomain inhibitors (YH-IV-129, YH-IV-255 and YH-IV-275) alone had any death inducing activity"
same,enhancement of TMZ-induced cell death,[6],very similar activity in enhancing the cell death inducing activity in BRM knockout GBM cells
same,binding to the BRM BRD,[3],binds well to the BRM BRD
same,TMZ sensitivity (TMZ-induced cell death),[7],similarly increase the TMZ sensitivity of GBM cells
same,bioluminescent signal in the brain,[1],decreased the bioluminescent signal in the brain
same,"γH2Ax staining, inhibitor with TMZ",[9],marked increase in γH2Ax staining
same,binding to the BRG1 BRD,[4],bind equivalently to the BRG1 BRD
same,selectivity BRG1 versus BRM bromodomain,[4],inhibitor of both BRG1 and BRM domains
bleomycin [reference compound],"cell death, bleomycin alone","[7]; low dose of bleomycin (0.01 µM), 72 hr, FIG. 9",induced low levels of cell death in MT330 cells
same,"γH2Ax staining, bleomycin alone",[10],dose dependent increase of γH2Ax staining
